Reference: patent publication US20260207605A1, “KRAS G12D INHIBITORS AND USES THEREOF” (Abbisko Therapeutics Co., Ltd., priority 2022, published 2026)

What was measured:
AGS = experiment: Anti-proliferative 2D CTG assay, AGS; assay type: cell-based; conditions: Homo sapiens, AGS, 96 h, AGS cells, 4 days incubation, read-out: AGS cell IC50
Procedure: (§1) 1.1 Day 0 Cell Culture and Plating
(§2) Cells in a logarithmic growth phase were harvested and the cells were counted by using a […]. Cell viability was tested by using a trypan blue exclusion method to ensure that cell viability was above 90%. The cell concentration was adjusted to the desired final density, and 90 μL of cell suspension was added to a 96-well plate, then the cells were incubated overnight at 37° C., 5% CO2 and 95% humidity.
(§3) 10 μL PBS was added to each well of the TO plate containing cells. The CTG reagent was thawed and the plate was equilibrated to room temperature for 30 minutes. The CTG solution of 50 µL/well was added to each well. The cells were lysed by shaking on an orbital shaker for 5 minutes. The plate was left at room temperature for 20 minutes to stabilize the luminescence signal. The TO fluorescence signal value was read.
(§4) From the 10 mM stock solution, with a ratio of 1:5, 9-point serial dilutions were performed. The 10× medium containing the compound was transferred into corresponding wells of the 96 wells. The final maximum compound concentration was […] and the final DMSO concentration was 0.1%. The 96-well plate was placed in a 37° C. incubator and incubated for 4 days.
(§5) 50 μL/well of detection reagent (CTG) was added to the cells, and the signal was read in an Envision machine.
(§6) The percent inhibition (%) at each compound concentration was calculated from the signal in the HPE and ZPE control wells and the fluorescence signal in the individual compound wells included in each assay plate. […] The compound concentration required for inhibitory concentration at 50% (IC50) was determined using a four-parameter logarithmic dose-response equation by testing the concentration of the compound and the inhibition percentage value. The endpoint value (IC50) of the reference compound was assessed in each experiment as a quality control measure. If the endpoint value is within three times the expected value, the experiment may be considered acceptable.

KRAS^G12D/cRAF = KRAS^G12D/cRAF (Homo sapiens, UniProt P01116, G12D); experiment: KRAS G12D/cRAF binding test (Alphalisa); conditions: His-tagged KRAS G12D with GMPPNP, GST-tagged cRAF
Procedure: The compound was dissolved in 100% DMSO at a starting concentration of 5 mM and diluted in DMSO with a 3-fold serial dilution method for a total of 8 concentration points. 1 μL of the compound or DMSO at each concentration point was added into 99 μL of the experimental buffer to obtain 10× stock solution.
The ratio for each compound concentration was calculated from the signal of the DMSO control group contained in each assay plate and the Alphalisa signal in each compound well. The compound concentration required for inhibitory concentration at 50% (IC50) was determined using a four-parameter logarithmic dose-response equation by testing the concentration of the compound and the value of the ratio. The endpoint value (IC50) of the reference compound was assessed in each experiment as a quality control measure. If the endpoint value is within three times the expected value, the experiment may be considered acceptable.

AsPC-1 = experiment: Anti-proliferative 2D CTG assay, AsPC-1; assay type: cell-based; conditions: Homo sapiens, ASPC1, 96 h, AsPC-1 cells, 4 days incubation, read-out: AsPC-1 cell IC50
Procedure: as §1, §2, §3, §4, §5, §6

[1] = Pharmacokinetic experiment in mice (single PO or IV administration); conditions: male, ICR, mouse, plasma
Source text: The purpose of this trial is to study the pharmacokinetic behavior of some compounds of the present invention, and the administration method is: single oral administration (PO) or intravenous administration (IV) to ICR mice.
ICR mice male N=9 original source: Shanghai Sippr-Bk Lab Animal Co., Ltd.
The compounds were weighed and dissolved in the corresponding solution (0.5% CMC+1% tween water solution or 10% PG+10% Solutol®+80% pH3 citrate buffer). The mixture was then shaken well and sonicated to prepare a 1 mg/mL stock solution. Nine mice were orally administered at a dose of 10 mg/kg or intravenously administered at a dose of 2 mg/kg after an overnight fast.
About 90 μL of blood was collected via the submandibular vein per time point, heparin sodium anticoagulant was added, the sample was placed on ice after collection, and plasma was centrifuged within 1 hour (centrifugation conditions: 8,000 rpm, 6 minutes, 2-8° C.). The blood collection timepoints were 0, 0.25, 0.5, 1, 2, 4, 6, 8 and 24 h. The samples were stored in a −20° C. refrigerator.
The plasma sample was 40 μL, 160 μL of ice-cold acetonitrile containing internal standard was added, vortexed for 3 minutes, and centrifuged at 11,000 rpm for 5 minutes. 100 μL of the supernatant was taken and added to 100 μL of water, 5 μL of the sample was taken and injected into LC/MS/MS for analysis.

Sequence of KRAS^G12D/cRAF (P01116 1-188 isoform P01116-2 G12D): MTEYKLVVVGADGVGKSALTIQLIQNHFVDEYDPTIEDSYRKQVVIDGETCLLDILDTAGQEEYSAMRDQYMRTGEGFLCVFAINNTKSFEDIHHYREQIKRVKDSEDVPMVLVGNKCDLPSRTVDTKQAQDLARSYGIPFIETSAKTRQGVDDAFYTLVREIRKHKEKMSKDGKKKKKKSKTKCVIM

Work on [2H]C([2H])([2H])OCC12CCC(CN(c3nc(OCC45CC(=C)CN4CC(=C)C5)nc4c(F)c(-c5cc(O)cc6ccc(F)c(C#C)c56)nc(OC)c34)C1)N2 (single isomer, unassigned) [Example 173] yielded an IC50 (AGS) of 26.4 nM.

In the case of [2H]C([2H])([2H])OCC12CCC(CN(c3nc(OCC45CC(=C)CN4CC(=C)C5)nc4c(F)c(-c5cc(O)cc6ccc(F)c(C#C)c56)ncc34)C1)N2 (stereo not drawn) [Example 1, 4-(2-((2,6-dimethylenetetrahydro-1H-pyrrolizin-7a(5H)-yl)methoxy)-8-fluoro-4-(1-((methoxy-d3)methyl)-3,8-diazabicyclo[3.2.1]octan-3-yl)pyrido[4,3-d]pyrimidin-7-yl)-5-ethynyl-6-fluoronaphthalen-2-ol], the IC50 (KRAS^G12D/cRAF) is reported as 37.4 nM and the IC50 (AGS) is reported as 22.9 nM.

Work on C#Cc1c(F)ccc2cc(O)cc(-c3ncc4c(N5CC6CCC(C(C)(C)O)(C5)N6)nc(OCC56CC(=C)CN5CC(=C)C6)nc4c3F)c12 (stereo not drawn) [Example 2, 4-(2-((2,6-dimethylenetetrahydro-1H-pyrrolizin-7a(5H)-yl)methoxy)-8-fluoro-4-(1-(2-hydroxypropan-2-yl)-3,8-diazabicyclo[3.2.1]octan-3-yl)pyrido[4,3-d]pyrimidin-7-yl)-5-ethynyl-6-fluoronaphthalen-2-ol] yielded an IC50 (KRAS^G12D/cRAF) of 48.2 nM and an IC50 (AGS) of 251 nM.

Compound C#Cc1c(F)ccc2cc(O)cc(-c3ncc4c(N5C[C@@H]6CC[C@](CC)(C5)N6)nc(OCC56CC(=C)CN5CC(=C)C6)nc4c3F)c12 [Example 5, 4-(2-((2,6-dimethylenetetrahydro-1H-pyrrolizin-7a(5H)-yl)methoxy)-4-((1R,5S)-1-ethyl-3,8-diazabicyclo[3.2.1]octan-3-yl)-8-fluoropyrido[4,3-d]pyrimidin-7-yl)-5-ethynyl-6-fluoronaphthalen-2-ol] has an IC50 (AsPC-1) of 45.8 nM, an IC50 (KRAS^G12D/cRAF) of 16.5 nM and an IC50 (AGS) of 14.1 nM.

For [2H]C([2H])([2H])C12CCC(CN(c3nc(OCC45CC(=C)CN4CC(=C)C5)nc4c(F)c(-c5cc(O)cc6ccc(F)c(C#C)c56)ncc34)C1)N2 (stereo not drawn) [Example 6, 4-(2-((2,6-dimethylenetetrahydro-1H-pyrrolizin-7a(5H)-yl)methoxy)-8-fluoro-4-(1-(methyl-d3)-3,8-diazabicyclo[3.2.1]octan-3-yl)pyrido[4,3-d]pyrimidin-7-yl)-5-ethynyl-6-fluoronaphtha len-2-ol], the IC50 (AsPC-1) was 48.9 nM, the IC50 (KRAS^G12D/cRAF) was 3.2 nM and the IC50 (AGS) was 14.3 nM.

In the case of C#Cc1c(F)ccc2cc(O)cc(-c3ncc4c(N5CC6CCC(COC)(C5)N6)nc(OCC56CC(=C)CN5CC(=C)C6)nc4c3F)c12 (stereo not drawn) [Example 8, 4-(2-((2,6-dimethylenetetrahydro-1H-pyrrolizin-7a(5H)-yl)methoxy)-8-fluoro-4-(1-(methoxymethyl)-3,8-diazabicyclo[3.2.1]octan-3-yl)pyrido[4,3-d]pyrimidin-7-yl)-5-ethynyl-6-fluoronaphthalen-2-ol], the IC50 (AGS) is reported as 36.8 nM.

With C#Cc1c(F)ccc2cc(O)cc(-c3ncc4c(N5C[C@@H]6CC[C@](C7CC7)(C5)N6)nc(OCC56CC(=C)CN5CC(=C)C6)nc4c3F)c12 [Example 12, 4-(4-((1S,5S)-1-cyclopropyl-3,8-diazabicyclo[3.2.1]octan-3-yl)-2-((2,6-dimethylenetetrahydro-1H-pyrrolizin-7a(5H)-yl)methoxy)-8-fluoropyrido[4,3-d]pyrimidin-7-yl)-5-ethynyl-6-fluoronaphthalen-2-ol] the IC50 (AsPC-1) was 219 nM, the IC50 (KRAS^G12D/cRAF) was 102 nM and the IC50 (AGS) was 104 nM.

With [2H]C([2H])([2H])[C@@]12CC[C@@H](CN(c3nc(OC[C@@]45CCCN4C/C(=C\F)C5)nc4c(F)c(-c5cc(O)cc6ccc(F)c(C#C)c56)ncc34)C1)N2 [Example 53, 5-ethynyl-6-fluoro-4-(8-fluoro-2-(((S,Z)-2-(fluoromethylene)tetrahydro-1H-pyrrolizin-7a(5H)-yl)methoxy)-4-((1R,5S)-1-(methyl-d3)-3,8-diazabicyclo [3.2.1]octan-3-yl)pyrido[4,3-d]pyrimidin-7-yl)naphthalen-2-ol] the IC50 (KRAS^G12D/cRAF) was 16.6 nM and the IC50 (AGS) was 1 nM.

In the case of C#Cc1c(F)ccc2cc(O)cc(-c3ncc4c(N5C[C@@H]6CC[C@](COC)(C5)N6)nc(OC[C@@]56CCCN5C/C(=C/F)C6)nc4c3F)c12 [Example 82, 5-ethynyl-6-fluoro-4-(8-fluoro-2-(((S,E)-2-(fluoromethylene)tetrahydro-1H-pyrrolizin-7a (5H)-yl)methoxy)-4-((1R,5S)-1-(methoxymethyl)-3,8-diazabicyclo [3.2.1]octan-3-yl)pyrido[4,3-d]pyrimidin-7-yl)naphthalen-2-ol], the IC50 (KRAS^G12D/cRAF) is reported as 8.1 nM.

For [2H]C([2H])([2H])Oc1nc(-c2cc(O)cc3ccc(F)c(C#C)c23)c(F)c2nc(OCC34CC(=C)CN3CC(=C)C4)nc(N3CC4CCC(CC)(C3)N4)c12 (stereo not drawn) [Example 201, 4-(2-((2,6-dimethylenetetrahydro-1H-pyrrolizin-7a(5H)-yl)methoxy)-4-(1-ethyl-3,8-diazabicyclo[3.2.1]octan-3-yl)-8-fluoro-5-(methoxy-d3)pyrido[4,3-d]pyrimidin-7-yl)-5-ethynyl-6-fluoronaphthalen-2-ol], the IC50 (AGS) was 21.6 nM.

[2H]C([2H])([2H])Oc1nc(-c2cc(O)cc3ccc(F)c(C#C)c23)c(F)c2nc(OC[C@@]34CCCN3C/C(=C\F)C4)nc(N3CC4CCC(CC)(C3)N4)c12 (stereo partly drawn) [Example 204, 4-(4-(1-ethyl-3,8-diazabicyclo [3.2.1]octan-3-yl)-8-fluoro-2-(((S,Z)-2-(fluoromethylene)tetrahydro-1H-pyrrolizin-7a(5H)-yl)methoxy)-5-(methoxy-d3)pyrido [4,3-d]pyrimidin-7-yl)-5-ethynyl-6-fluoronaphthalen-2-ol] gave an IC50 (KRAS^G12D/cRAF) of 3.9 nM and an IC50 (AGS) of 5.1 nM.

With [2H]C([2H])([2H])C([2H])([2H])[C@@]12CC[C@@H](CN(c3nc(OC[C@@]45CCCN4C/C(=C\F)C5)nc4c(F)c(-c5ccc(F)c6sc(N)c(C#N)c56)c(Cl)cc34)C1)N2 [Example 360, 2-amino-4-(6-chloro-4-((1R,5S)-1-(ethyl-d5)-3,8-diazabicyclo [3.2.1]octan-3-yl)-8-fluoro-2-(((S,Z)-2-(fluoromethylene)tetra-hydro-1H-pyrrolizin-7a(5H)-yl)methoxy)quinazolin-7-yl)-7-fluoro-benzo[b]thiophene-3-carbonitrile] the IC50 (KRAS^G12D/cRAF) was 20.2 nM.

C#Cc1c(F)ccc2cc(O)cc(-c3ncc4c(N5C[C@H]6CC[C@@H](C5)N6)nc(OC[C@@]56CCCN5C/C(=C\F)C6)nc4c3F)c12 [Reference Compound 1, 4-(4-((1R,5S)-3,8-diazabicyclo [3.2.1]octan-3-yl)-8-fluoro-2-(((S,Z)-2-(fluoromethylene)tetrahydro-1H-pyrrolizin-7a(5H)-yl)methoxy)pyrido[4,3-d]pyrimidin-7-yl)-5-ethynyl-6-fluoronaphthalen-2-ol, reference compound] gave an AUC ([1]; iv, 2 mg/kg) of 688 ng·h/mL, a Cmax ([1]; iv, 2 mg/kg) of 1690 ng/mL and a half-life ([1]; iv, 2 mg/kg) of 10.5 h. It also gave an AUC ([1]; po, 10 mg/kg) of 82.6 ng·h/mL, a Cmax ([1]; po, 10 mg/kg) of 33.2 ng/mL and a bioavailability ([1]; po, 10 mg/kg) of 2.4%. It also gave a half-life ([1]; po, 10 mg/kg) of 2.6 h.

Compound C#Cc1c(F)ccc2cc(O)cc(-c3ncc4c(N5C[C@H]6CC[C@@H](C5)N6)nc(OC[C@@]56CCCN5C/C(=C/F)C6)nc4c3F)c12 [Reference Compound 2, 4-(4-((1R,5S)-3,8-diazabicyclo [3.2.1]octan-3-yl)-8-fluoro-2-(((S,E)-2-(fluoromethylene)tetrahydro-1H-pyrrolizin-7a(5H)-yl)methoxy)pyrido[4,3-d]pyrimidin-7-yl)-5-ethynyl-6-fluoronaphthalen-2-ol, reference compound] has an AUC ([1]; iv, 2 mg/kg) of 718 ng·h/mL, a Cmax ([1]; iv, 2 mg/kg) of 1350 ng/mL and a half-life ([1]; iv, 2 mg/kg) of 14.1 h. It also gave an AUC ([1]; po, 10 mg/kg) of 43.2 ng·h/mL, a Cmax ([1]; po, 10 mg/kg) of 27.7 ng/mL and a bioavailability ([1]; po, 10 mg/kg) of 1.2%. It also gave a half-life ([1]; po, 10 mg/kg) of 2.3 h.

Compound C#Cc1c(F)ccc2cc(O)cc(-c3ncc4c(N5C[C@H]6CC[C@@H](C5)N6)nc(OC[C@@]56CCCN5CC(=C)C6)nc4c3F)c12 [Reference Compound 3, 4-(4-((1R,5S)-3,8-diazabicyclo [3.2.1]octan-3-yl)-8-fluoro-2-(((S)-2-methylenetetrahydro-1H-pyrrolizin-7a(5H)-yl)methoxy)pyrido[4,3-d]pyrimidin-7-yl)-5-ethynyl-6-fluoronaphthalen-2-ol, reference compound] has an AUC ([1]; po, 10 mg/kg) of 27.1 ng·h/mL, a Cmax ([1]; po, 10 mg/kg) of 10.7 ng/mL and a half-life ([1]; po, 10 mg/kg) of 2.6 h.
